Activity calls are given as the source filed them. The rule behind the calls is not given here.
Experiments:
EA.hy 926 [1] = experiment: Cytoprotective activity against H2O2-induced toxicity in human EA.hy 926 cells assessed as protective rate at 10 uM pretreated with compound for 4 hrs followed by incubation with H2O2 for 2 hrs by absorbance based analysis; type: functional; settings: time 6 hrs
[2] = molecular target: T1, NAD-dependent protein deacetylase sirtuin-1 (Homo sapiens) (UniProt Q96EB6); experiment: Binding affinity to SIRT1 (unknown origin) by surface plasmon resonance assay; settings: filed as activator
T1 sequence (whole entry): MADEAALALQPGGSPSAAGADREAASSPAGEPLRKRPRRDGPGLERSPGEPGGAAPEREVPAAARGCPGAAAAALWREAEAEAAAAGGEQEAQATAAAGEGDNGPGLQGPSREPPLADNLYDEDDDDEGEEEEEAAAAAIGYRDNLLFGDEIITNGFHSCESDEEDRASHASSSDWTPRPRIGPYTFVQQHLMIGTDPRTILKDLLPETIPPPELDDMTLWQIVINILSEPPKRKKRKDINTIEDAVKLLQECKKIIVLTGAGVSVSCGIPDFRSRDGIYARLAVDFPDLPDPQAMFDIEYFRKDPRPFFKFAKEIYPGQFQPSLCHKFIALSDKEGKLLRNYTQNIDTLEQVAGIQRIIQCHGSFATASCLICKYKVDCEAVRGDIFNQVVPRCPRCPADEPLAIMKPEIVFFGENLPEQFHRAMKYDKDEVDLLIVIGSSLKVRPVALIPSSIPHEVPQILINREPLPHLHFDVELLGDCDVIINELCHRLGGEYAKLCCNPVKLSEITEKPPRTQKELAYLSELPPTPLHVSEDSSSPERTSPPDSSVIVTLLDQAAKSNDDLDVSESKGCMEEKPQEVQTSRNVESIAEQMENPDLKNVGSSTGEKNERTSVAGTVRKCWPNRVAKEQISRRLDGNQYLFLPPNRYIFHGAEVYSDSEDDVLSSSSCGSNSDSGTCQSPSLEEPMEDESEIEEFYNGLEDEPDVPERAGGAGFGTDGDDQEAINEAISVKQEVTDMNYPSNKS

EA.hy 926 [3] = experiment: Cytoprotective activity against H2O2-induced toxicity in human EA.hy 926 cells assessed as protective rate pretreated with compound for 4 hrs followed by incubation with H2O2 for 2 hrs by absorbance based analysis; type: functional, cell-based
[4] = molecular target: T2, Peroxisome proliferator-activated receptor gamma coactivator 1-alpha (Homo sapiens) (UniProt Q9UBK2); experiment: Binding affinity to PGC1alpha (unknown origin) by surface plasmon resonance assay; settings: filed as activator
T2 sequence (whole entry): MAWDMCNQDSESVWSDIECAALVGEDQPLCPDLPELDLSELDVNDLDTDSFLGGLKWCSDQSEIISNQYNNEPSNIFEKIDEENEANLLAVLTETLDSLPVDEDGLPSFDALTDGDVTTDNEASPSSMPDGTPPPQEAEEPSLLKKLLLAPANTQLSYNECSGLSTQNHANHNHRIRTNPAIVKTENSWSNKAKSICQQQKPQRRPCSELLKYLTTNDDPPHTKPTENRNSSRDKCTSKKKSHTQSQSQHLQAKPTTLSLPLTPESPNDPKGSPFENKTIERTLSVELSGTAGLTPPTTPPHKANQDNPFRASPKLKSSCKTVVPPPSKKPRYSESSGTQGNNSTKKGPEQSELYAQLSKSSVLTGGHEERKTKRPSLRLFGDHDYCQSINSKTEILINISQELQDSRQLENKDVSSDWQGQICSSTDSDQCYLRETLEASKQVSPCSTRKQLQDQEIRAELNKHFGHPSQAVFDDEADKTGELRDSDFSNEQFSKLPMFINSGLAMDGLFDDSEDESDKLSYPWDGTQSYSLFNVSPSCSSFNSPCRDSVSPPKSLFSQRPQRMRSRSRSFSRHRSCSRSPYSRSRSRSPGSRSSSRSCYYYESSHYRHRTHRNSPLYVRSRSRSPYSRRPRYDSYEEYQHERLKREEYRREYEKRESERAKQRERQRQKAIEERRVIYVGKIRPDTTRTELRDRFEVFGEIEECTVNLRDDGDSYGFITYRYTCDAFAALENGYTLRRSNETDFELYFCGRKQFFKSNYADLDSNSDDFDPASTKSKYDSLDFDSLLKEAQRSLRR

Activity [2] | Activity [4] | Structure (SMILES) | Activity (EA.hy 926 [1]) [%] | EC50 (EA.hy 926 [3]) [nM]
 |  | CC(C)Cc1ccc(C(=O)c2cc(O)c(Cl)cc2O)cc1 | -3.92 | 
 |  | CCCCc1ccc(C(=O)c2cc(O)c(O)cc2F)cc1 | 58.82 | 
 |  | CC(C)Cc1ccc(C(=O)c2c(O)cc(O)cc2O)cc1 | 21.63 | 
Active | Active | CC(C)Cc1ccc(C(=O)c2ccc(O)c(O)c2O)cc1 | 93.75 | 118
 |  | CCCCc1ccc(C(=O)c2c(O)cc(O)cc2O)cc1 | 36.04 | 
 |  | CCCCc1ccc(C(=O)c2cc(O)c(Cl)cc2O)cc1 | 21.66 | 
 |  | CCCCc1ccc(C(=O)c2c(Cl)cc(O)cc2OC)cc1 | 11.76 | 
 |  | CCCCc1ccc(C(=O)c2ccc(O)c(C)c2O)cc1 | 2.8 | 
 |  | COc1cc(O)cc(Cl)c1C(=O)c1ccc(C(C)(C)C)cc1 | -64 | 
 |  | Cc1c(O)ccc(C(=O)c2ccc(C(C)(C)C)cc2)c1O | -67.36 | 
 |  | CC(C)Cc1ccc(C(=O)c2cc(O)ccc2O)cc1 | 8.96 | 
 |  | CC(C)(C)c1ccc(C(=O)c2cc(O)ccc2O)cc1 | -7 | 
 |  | CCCCc1ccc(C(=O)c2c(O)cc(O)cc2Cl)cc1 | 38.47 | 
 |  | CC(C)(C)c1ccc(C(=O)c2c(O)cc(O)cc2O)cc1 | -64 | 
 |  | Cc1c(O)ccc(C(=O)c2ccc(CC(C)C)cc2)c1O | 17.37 | 
 |  | CCCCc1ccc(C(=O)c2ccc(O)c(O)c2O)cc1 | 64.71 | 
Active | Active | CCCCc1ccc(C(=O)c2ccc(O)c(O)c2)cc1 | 70.59 | 84.2
 |  | COc1cc(O)cc(Cl)c1C(=O)c1ccc(CC(C)C)cc1 | 2.99 | 
 |  | CC(C)Cc1ccc(C(=O)c2c(O)cc(O)cc2Cl)cc1 | -8.4 | 
 |  | CCCCc1ccc(C(=O)c2cc(O)ccc2O)cc1 | 39.03 | 
Active | Active | CC(C)(C)c1ccc(C(=O)c2cc(O)c(O)cc2F)cc1 | 80.56 | 104
Active | Active | CC(C)Cc1ccc(C(=O)c2ccc(O)c(O)c2)cc1 | 93.75 | 81
Active | Active | CC(C)Cc1ccc(C(=O)c2cc(O)c(O)cc2F)cc1 | 93.75 | 80.8
 |  | CC(C)(C)c1ccc(C(=O)c2ccc(O)c(O)c2O)cc1 | -6.9 | 
 |  | CC(C)(C)c1ccc(C(=O)c2cc(O)c(Cl)cc2O)cc1 | -67 | 
 |  | CC(C)(C)c1ccc(C(=O)c2c(O)cc(O)cc2Cl)cc1 | -49 | 
 |  | O=c1c(O)c(-c2ccc(O)c(O)c2)oc2cc(O)cc(O)c12 [QUERCETIN] | 55.2 | 2670

— ChEMBL document CHEMBL5537110, “SIRT1-dependent mitochondrial biogenesis supports therapeutic effects of 4-butyl-polyhydroxybenzophenone compounds against NAFLD” (Eur J Med Chem, 2023)
